Measured values published in US5686477A, “5-(arloxymethyl)oxazolines” (Adir et Compagnie, priority 1994, dated 1997).

Experiments:
[1] = dipole moment; assay type: physicochemical
[2] = molecular target: imidazoline I1-receptors; experiment: Binding to imidazoline I1-receptors, displacement of [3H]-clonidine (in vitro); settings: [3H]-clonidine + 10 μM norepinephrine; bovine lateral reticular nucleus
Source text: (§1) EXAMPLE A: PROFILE OF BINDING TO IMIDAZOLINE I1 - AND I2 -RECEPTORS. (IN VITRO STUDY)
(§2) To measure in vitro the binding affinity of the compounds of the invention for I1 - and I2 -receptors, by determining the capacity of those compounds to displace specific radioligands of the imidazoline I1 - and I2 -receptors.
(§3) The following Table gives the radioligand used to label the receptor, the compound and the concentration selected to determine the non-specific fraction and the tissue selected.
(§4) Radioligand non specific
10 μM of cold clonidine

[3] = molecular target: imidazoline I2-receptors; experiment: Binding to imidazoline I2-receptors, displacement of [3H]-idazoxane (in vitro); settings: [3H]-idazoxane + 10 μM norepinephrine; rabbit renal cortex
Source text: as §1, §2, §3, §4
10^-5 M rabbit renal cortex

[4] = log Po/w
[5] = pKa

| Structure (SMILES) | Ki [2] | Ki [3] | dipole moment ([1]; benzene) | dipole moment ([1]; dioxane) | logP [4] | pKa [5] |
| --- | --- | --- | --- | --- | --- | --- |
| Cc1ccccc1OCC1CN=C(N)O1 (racemic) [Example 1, 5-[(2-METHYLPHENOXY)METHYL]-4,5-DIHYDRO-OXAZOL-2-YLAMINE] | 8.5 nM | 920 nM | 1.80 D | 2.07 D | 1.69 | 8.54 |
| Cc1ccccc1OCC1CN=C(N)O1 (single isomer, unassigned) [Example 28, 5-[(2-METHYLPHENOXY)METHYL]-4,5-DIHYDRO-OXAZOL-2-YLAMINE] | 370 nM | 13000 nM |  |  |  |  |
| Cc1ccccc1OCC1CN=C(N)O1 (single isomer, unassigned) [Example 29, 5-[(2-METHYLPHENOXY)METHYL]-4,5-DIHYDRO-OXAZOL-2-YLAMINE] | 5.8 nM | 7500 nM |  |  |  |  |
| Cc1cccc(C)c1OCC1CN=C(N)O1 (stereo not drawn) [Example 9, 5-[(2,6-DIMETHYLPHENOXY)METHYL]-4,5-DIHYDRO-OXAZOL-2-YLAMINE] | 57 nM | 2100 nM |  |  |  |  |
| Cc1ccc(OCC2CN=C(N)O2)c(C)c1 (stereo not drawn) [Example 10, 5-[(2,4-DIMETHYLPHENOXY)METHYL]-4,5-DIHYDRO-OXAZOL-2-YLAMINE] | 160 nM | 3900 nM |  |  |  |  |
| Cc1ccc(C)c(OCC2CN=C(N)O2)c1 (stereo not drawn) [Example 16, 5-[(2,5-DIMETHYLPHENOXY)METHYL]-4,5-DIHYDRO-OXAZOL-2-YLAMINE] | 85 nM | 1600 nM |  |  |  |  |
| CCc1ccccc1OCC1CN=C(N)O1 (stereo not drawn) [Example 18, 5-[(2-ETHYLPHENOXY)METHYL]-4,5-DIHYDRO-OXAZOL-2-YLAMINE] | 100 nM | 1800 nM |  |  |  |  |
| NC1=NCC(COc2ccccc2F)O1 (stereo not drawn) [Example 20, 5-[(2-FLUOROPHENOXY)METHYL]-4,5-DIHYDRO-OXAZOL-2-YLAMINE] | 210 nM | 1300 nM |  |  |  |  |

Now from value to compound, other results behind:

| Ki [2] | Ki [3] | Structure (SMILES) | dipole moment ([1]; benzene) | dipole moment ([1]; dioxane) | logP [4] | pKa [5] |
| --- | --- | --- | --- | --- | --- | --- |
| 64 nM | 450 nM | Cc1cccc(OCC2CN=C(N)O2)c1C (stereo not drawn) [Example 13, 5-[(2,3-DIMETHYLPHENOXY)METHYL]-4,5-DIHYDRO-OXAZOL-2-YLAMINE] |  |  |  |  |
| 120 nM | 1000 nM | Cc1cc(Cl)ccc1OCC1CN=C(N)O1 (stereo not drawn) [Example 17, 5-[(4-CHLORO-2-METHYLPHENOXY)METHYL]-4,5-DIHYDRO-OXAZOL-2-YLAMINE] |  |  |  |  |
| 120 nM | 2100 nM | CC(C)c1ccccc1OCC1CN=C(N)O1 (stereo not drawn) [Example 19, 5-[(2-ISOPROPYLPHENOXY)METHYL]-4,5-DIHYDRO-OXAZOL-2-YLAMINE] |  |  |  |  |
| 500 nM | 3900 nM | NC1=NCC(COc2ccccc2[N+](=O)[O-])O1 (stereo not drawn) [Example 21, 5-[(2-NITROPHENOXY)METHYL]-4,5-DIHYDRO-OXAZOL-2-YLAMINE] |  |  |  |  |
| 48 nM | 2400 nM | N#Cc1ccccc1OCC1CN=C(N)O1 (stereo not drawn) [Example 22, 5-[(2-CYANOPHENOXY)METHYL]-4,5-DIHYDRO-OXAZOL-2-YLAMINE] |  |  |  |  |
| 170 nM | 7700 nM | CC(=O)c1ccccc1OCC1CN=C(N)O1 (stereo not drawn) [Example 23, 5-[(2-ACETYLPHENOXY)METHYL]-4,5-DIHYDRO-OXAZOL-2-YLAMINE] |  |  |  |  |
| 670 nM | 1400 nM | CCCNC1=NCC(COc2ccccc2C)O1 (stereo not drawn) [Example 26, N-n-PROPYL-N-[5-(2-METHYLPHENOXY)METHYL-4,5-DIHYDRO-OXAZOL-2-YL]AMINE] |  |  |  |  |
| 170 nM | 1000 nM | CCNC1=NCC(COc2ccccc2C)O1 (stereo not drawn) [Example 27, N-ETHYL-N-[5-(2-METHYLPHENOXY)METHYL-4,5-DIHYDRO-OXAZOL-2-YL]AMINE] |  |  |  |  |
